Experimental data as given in ChEMBL document CHEMBL3091342, “Preparation, in vitro evaluation and molecular modelling of pyridinium-quinolinium/isoquinolinium non-symmetrical bisquaternary cholinesterase inhibitors” (Bioorg Med Chem Lett, 2013).

Columns and labels:
[1] = biological target: Cholinesterase (Homo sapiens, UniProt P06276); assay: Inhibition of human plasmatic BChE after 5 mins by Ellman's method; parameters: species or system Plasma
[2] = biological target: T1, Acetylcholinesterase (Homo sapiens, UniProt P22303); assay: Inhibition of human recombinant AChE after 5 mins by Ellman's method
[3] = biological target: T1, Acetylcholinesterase; assay: Inhibition of human recombinant AChE by Lineweaver-Burk plot analysis
[4] = biological target: T1, Acetylcholinesterase; assay: Non competitive inhibition of human recombinant AChE using ATChCl as substrate by Lineweaver-Burk plot analysis

T1 sequence (P22303 whole entry): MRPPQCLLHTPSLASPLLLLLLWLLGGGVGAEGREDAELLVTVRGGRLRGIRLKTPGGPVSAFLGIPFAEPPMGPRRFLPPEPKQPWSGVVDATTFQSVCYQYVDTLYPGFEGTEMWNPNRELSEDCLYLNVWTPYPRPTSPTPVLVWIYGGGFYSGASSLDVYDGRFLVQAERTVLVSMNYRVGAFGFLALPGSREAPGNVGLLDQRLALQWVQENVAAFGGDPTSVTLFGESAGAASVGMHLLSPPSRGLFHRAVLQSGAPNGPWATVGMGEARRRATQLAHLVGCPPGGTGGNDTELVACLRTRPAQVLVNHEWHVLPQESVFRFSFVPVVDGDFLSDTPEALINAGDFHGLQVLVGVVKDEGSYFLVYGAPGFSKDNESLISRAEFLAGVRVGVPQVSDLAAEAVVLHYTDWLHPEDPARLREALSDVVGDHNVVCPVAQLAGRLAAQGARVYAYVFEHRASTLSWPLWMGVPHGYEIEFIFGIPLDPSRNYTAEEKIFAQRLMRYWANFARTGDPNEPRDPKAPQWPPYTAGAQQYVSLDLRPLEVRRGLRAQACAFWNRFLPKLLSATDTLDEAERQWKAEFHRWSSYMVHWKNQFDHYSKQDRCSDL
Chain of Cholinesterase (P06276 whole entry): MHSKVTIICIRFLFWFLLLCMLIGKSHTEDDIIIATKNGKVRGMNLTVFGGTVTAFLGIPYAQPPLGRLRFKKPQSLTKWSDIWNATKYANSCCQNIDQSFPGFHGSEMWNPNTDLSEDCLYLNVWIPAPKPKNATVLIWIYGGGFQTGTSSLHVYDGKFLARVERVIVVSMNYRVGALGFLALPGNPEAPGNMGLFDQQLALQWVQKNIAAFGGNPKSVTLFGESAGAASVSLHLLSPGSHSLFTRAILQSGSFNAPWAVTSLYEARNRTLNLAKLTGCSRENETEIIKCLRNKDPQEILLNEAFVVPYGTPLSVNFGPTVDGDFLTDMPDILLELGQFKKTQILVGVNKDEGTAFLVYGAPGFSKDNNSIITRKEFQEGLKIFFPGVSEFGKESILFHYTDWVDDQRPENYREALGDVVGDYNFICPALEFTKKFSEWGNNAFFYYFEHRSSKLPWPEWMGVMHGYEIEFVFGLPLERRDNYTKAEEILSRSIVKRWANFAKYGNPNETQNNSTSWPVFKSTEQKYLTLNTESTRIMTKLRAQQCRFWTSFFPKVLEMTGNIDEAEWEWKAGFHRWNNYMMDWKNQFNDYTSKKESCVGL

Compound | IC50 [1] [nM] | IC50 [2] [nM] | Ki [3] [nM] | Ki [4] [nM]
c1cc[n+](CCCCCCC[n+]2ccc3ccccc3c2)cc1 | 1000 | 800 | – | –
c1cc[n+](CCCCCCCC[n+]2ccc3ccccc3c2)cc1 | 7700 | 140 | – | –
c1cc[n+](CCCCCCCCC[n+]2ccc3ccccc3c2)cc1 | 350 | 40 | – | –
c1cc[n+](CCCCCCCCCC[n+]2ccc3ccccc3c2)cc1 | 370 | 20 | – | –
c1cc[n+](CCCCCCCCCCC[n+]2ccc3ccccc3c2)cc1 | 700 | 30 | – | –
c1cc[n+](CCCCCCC[n+]2cccc3ccccc32)cc1 | 2200 | 540 | – | –
c1cc[n+](CCCCCCCC[n+]2cccc3ccccc32)cc1 | 2000 | 270 | – | –
c1cc[n+](CCCCCCCCC[n+]2cccc3ccccc32)cc1 | 1700 | 120 | – | –
c1cc[n+](CCCCCCCCCCC[n+]2cccc3ccccc32)cc1 | 900 | 17 | – | –
c1cc[n+](CCCCCCCCCCCC[n+]2cccc3ccccc32)cc1 | 680 | 4.7 | 20 | 10
